Values quoted from earlier work, collected in patent US20110275602A1, “PHARMACEUTICAL ASSOCIATION, COMPOSITIONS FOR TOPICAL USE, FORMS OF DOSAGE AND METHOD OF TREATMENT OF ACUTE OR CHRONIC OTITIS IN PET ANIMALS” (priority 2007, published 2011).

Tested on: acute external otitis
Conditions: humans; literature

O=C(O)c1cn(C2CC2)c2cc(N3CCNCC3)c(F)cc2c1=O [ciprofloxacin]
efficacy for the treatment of acute external otitis: 77%
